The NIST ThermoML archive (doi:10.1021/je900570e)
± gives the expanded uncertainty stated by the source.

Experiment: xn = mol fraction of the nth substance listed
Details: Liquid; for viscosity / speed of sound: 101 kPa; for viscosity: Capillary tube (Ostwald / Ubbelohde) method; for speed of sound: Frequency=2 MHz, Pulse-echo method; for mass density: 101.33 kPa, Vibrating tube method

ClCC(Cl)Cl [1,1,2-trichloroethane] + N#CCc1ccccc1
Details	mass density, 303.15 K [kg/m3]	mass density, 308.15 K [kg/m3]	mass density, 313.15 K [kg/m3]	speed of sound, 303.15 K [m/s]	speed of sound, 308.15 K [m/s]	speed of sound, 313.15 K [m/s]	viscosity, 303.15 K [mPa·s]	viscosity, 308.15 K [mPa·s]	viscosity, 313.15 K [mPa·s]
x2 = 0	1425 ± 1.8	1416.1 ± 1.8	1409.6 ± 1.8	1129.2 ± 7.1	1115.9 ± 7	1096.1 ± 6.9	1.019 ± 0.016	0.9483 ± 0.015	0.8888 ± 0.015
x2 = 0.0185	1415.6 ± 1.8	1407.2 ± 1.8	1400.5 ± 1.8	1137 ± 7.1	1125 ± 7.1	1105.9 ± 7	1.046 ± 0.016	0.9728 ± 0.015	0.9045 ± 0.015
x2 = 0.1212	1364.9 ± 1.7	1358.6 ± 1.7	1351.2 ± 1.6	1176.7 ± 7.4	1168.2 ± 7.3	1150.9 ± 7.2	1.158 ± 0.017	1.064 ± 0.016	0.9825 ± 0.015
x2 = 0.2319	1312.6 ± 1.5	1307.3 ± 1.5	1300.6 ± 1.5	1219.7 ± 7.6	1214.2 ± 7.6	1199.9 ± 7.5	1.264 ± 0.018	1.163 ± 0.017	1.074 ± 0.016
x2 = 0.3463	1261.1 ± 1.4	1256.2 ± 1.4	1250.2 ± 1.4	1263.4 ± 7.9	1261.9 ± 7.9	1248.1 ± 7.8	1.365 ± 0.019	1.259 ± 0.018	1.169 ± 0.017
x2 = 0.445	1218.6 ± 1.3	1214 ± 1.3	1208.4 ± 1.3	1301 ± 8.1	1301.5 ± 8.1	1288.9 ± 8	1.454 ± 0.02	1.336 ± 0.019	1.242 ± 0.018
x2 = 0.5545	1173.4 ± 1.2	1168.9 ± 1.2	1163.6 ± 1.2	1342.8 ± 8.3	1343.3 ± 8.3	1332.8 ± 8.3	1.545 ± 0.021	1.411 ± 0.019	1.307 ± 0.018
x2 = 0.6861	1121.7 ± 1.1	1117.3 ± 1.1	1112.1 ± 1.1	1393.4 ± 8.6	1392.9 ± 8.6	1383.2 ± 8.6	1.631 ± 0.022	1.491 ± 0.02	1.381 ± 0.019
x2 = 0.8245	1070.3 ± 1	1065.7 ± 1	1060.7 ± 1	1446.6 ± 8.9	1445.1 ± 8.9	1431.8 ± 8.8	1.706 ± 0.022	1.561 ± 0.021	1.436 ± 0.02
x2 = 0.972	1018.4 ± 0.9	1013.7 ± 0.9	1009 ± 0.9	1505.3 ± 9.3	1498.7 ± 9.2	1488.9 ± 9.2	1.758 ± 0.023	1.595 ± 0.021	1.477 ± 0.02

N#CCc1ccccc1 [benzeneacetonitrile] + ClC(Cl)=C(Cl)Cl
Details	mass density, 303.15 K [kg/m3]	mass density, 308.15 K [kg/m3]	mass density, 313.15 K [kg/m3]	speed of sound, 303.15 K [m/s]	speed of sound, 308.15 K [m/s]	speed of sound, 313.15 K [m/s]	viscosity, 303.15 K [mPa·s]	viscosity, 308.15 K [mPa·s]	viscosity, 313.15 K [mPa·s]
x1 = 0.0231	1591.9 ± 0.8	1583 ± 0.8	1575.7 ± 0.8	1037.5 ± 6.3	1024.4 ± 6.3	1010.5 ± 6.2	0.8124 ± 0.012	0.7752 ± 0.012	0.746 ± 0.012
x1 = 0.1322	1520.1 ± 0.8	1512.1 ± 0.8	1505.3 ± 0.8	1082.9 ± 6.6	1070.9 ± 6.5	1060.1 ± 6.5	0.884 ± 0.012	0.8382 ± 0.012	0.8001 ± 0.012
x1 = 0.249	1445.2 ± 0.9	1438 ± 0.9	1431.6 ± 0.8	1133.9 ± 6.9	1123.3 ± 6.9	1113.4 ± 6.8	0.9577 ± 0.013	0.9171 ± 0.013	0.868 ± 0.013
x1 = 0.37	1369.8 ± 0.9	1363.1 ± 0.9	1357.1 ± 0.9	1188.9 ± 7.3	1178.8 ± 7.2	1168.9 ± 7.2	1.06 ± 0.014	0.9982 ± 0.014	0.9342 ± 0.013
x1 = 0.4713	1308.3 ± 0.9	1302 ± 0.9	1296.2 ± 0.9	1236.8 ± 7.6	1226.7 ± 7.5	1216.8 ± 7.5	1.159 ± 0.015	1.077 ± 0.014	1.003 ± 0.014
x1 = 0.5767	1245.7 ± 0.9	1239.8 ± 0.9	1234.3 ± 0.9	1288.5 ± 7.9	1278.5 ± 7.9	1268.9 ± 7.8	1.269 ± 0.016	1.172 ± 0.015	1.096 ± 0.015
x1 = 0.7051	1171.4 ± 0.9	1166.1 ± 0.9	1160.8 ± 0.9	1355 ± 8.3	1345 ± 8.3	1335.7 ± 8.2	1.413 ± 0.018	1.294 ± 0.017	1.207 ± 0.016
x1 = 0.8386	1096.5 ± 0.9	1091.6 ± 0.9	1086.6 ± 0.9	1428 ± 8.8	1419.2 ± 8.7	1409.3 ± 8.7	1.571 ± 0.02	1.43 ± 0.019	1.329 ± 0.018
x1 = 0.972	1023.9 ± 0.9	1019.2 ± 0.9	1014.5 ± 0.9	1504.1 ± 9.3	1497.9 ± 9.2	1486.1 ± 9.2	1.726 ± 0.023	1.57 ± 0.021	1.458 ± 0.02
x1 = 1	1008.8 ± 0.9	1004.1 ± 0.8	999.5 ± 0.8	1519.2 ± 9.4	1512.9 ± 9.3	1503.4 ± 9.3	1.761 ± 0.023	1.602 ± 0.021	1.489 ± 0.02
